# Data taken from PubChem BioAssay (NCI).
#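 Exposure lasted 48 hours, with cells grown in 96-well plates and compounds tested at five concentrations. Here, GI50 denotes the concentration required for 50% inhibition of growth. TGI: concentration producing complete growth inhibition.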
# Experiments:
# Assay in all cases: growth of human tumour cells (NCI), 48 h
# SK-OV-3 ovarian = tested on: SK-OV-3 ovarian
# ACHN renal = tested on: ACHN renal
# UO-31 renal = tested on: UO-31 renal
# RPMI-8226 leukemia = tested on: RPMI-8226 leukemia
# NCI-H460 lung = tested on: NCI-H460 lung
# SF-295 CNS = tested on: SF-295 CNS
# M14 melanoma = tested on: M14 melanoma
# 786-0 renal = tested on: 786-0 renal
# U251 CNS = tested on: U251 CNS
# A498 renal = tested on: A498 renal
SMILES,GI50 (SK-OV-3 ovarian) [µM],TGI (SK-OV-3 ovarian) [µM],GI50 (ACHN renal) [µM],TGI (ACHN renal) [µM],GI50 (UO-31 renal) [µM],TGI (UO-31 renal) [µM],GI50 (RPMI-8226 leukemia) [µM],TGI (RPMI-8226 leukemia) [µM],GI50 (NCI-H460 lung) [µM],TGI (NCI-H460 lung) [µM],GI50 (SF-295 CNS) [µM],TGI (SF-295 CNS) [µM],TGI (M14 melanoma) [µM],TGI (786-0 renal) [µM],TGI (U251 CNS) [µM],TGI (A498 renal) [µM]
COc1ccc(-c2ccc(-c3ccc(C(=N)N)nc3)s2)cc1Cl,1.75,3.36,1.77,3.15,1.55,2.91,2.25,4.9,1.8,3.36,1.8,3.24,,,,
CN(CCO)CCCC1COc2ccccc2O1 (stereo unspecified),,> 100,,> 100,,> 100,,,,> 100,,> 100,> 100,> 100,> 100,
O=c1[nH]c2ccccc2c(O)c1/C=N/C(=S)NCc1ccccc1,,> 100,,> 100,,> 100,,,,,,> 100,> 100,> 100,> 100,
COc1cc([C@@H]2c3cc4c(cc3[C@@H](Nc3ccccc3C(=O)c3ccccc3)[C@H]3COC(=O)[C@H]23)OCO4)cc(OC)c1OC,,> 100,,> 100,,> 100,,,,,,> 100,> 53.7,> 100,0.979,
COC12CCCN1c1ccn(Cc3ccccc3)c(=O)c1C2=O (stereo unspecified),,> 100,,> 100,,> 100,,,,> 100,,> 100,> 100,> 100,> 100,> 100
CC1(C)C(CCO)CC1n1cc(I)c(=O)[nH]c1=O (stereo unspecified),,> 100,,> 100,,> 100,,> 100,,,,> 100,> 100,> 100,> 100,> 100
COc1cc(C2SC(C)C(=O)N2c2ccc(-c3csc(NS(=O)(=O)c4ccc(Cl)c(OC)c4)n3)cc2)ccc1O (stereo unspecified),,> 100,,> 100,,> 100,,,,> 100,,> 100,> 100,> 100,> 100,> 100
COC1CC(OC2C(C)OC(OC3C(C)OC(OC4C(O)CC(O[C@H]5CC[C@@]6(C)C(=CC[C@]7(O)[C@@H]6C[C@@H](OC(C)=O)[C@@]6(C)[C@]7(O)CC[C@@]6(O)C(C)=O)C5)OC4C)CC3OC)CC2OC)OC(C)C1O (stereo partly specified),,> 12.5,,> 12.5,,> 12.5,,> 12.5,,,,> 12.5,> 12.5,> 12.5,> 12.5,
COc1cc2oc(=O)cc(C)c2cc1O,,,,> 100,,> 100,,> 100,,> 100,,> 100,> 100,> 100,> 100,> 100
COc1ccc2c(c1)C/C(=C\c1cccc3ccccc13)C2=O,,> 100,,> 100,,> 100,,> 100,,> 100,,,> 100,77.7,81.3,> 100
O=c1oc2ccc([N+](=O)[O-])cc2c(Nc2ccc3c(c2)Sc2ccccc2O3)c1[N+](=O)[O-],,47.6,,72,,37.8,,54.2,,57.8,,94.3,41.6,39.9,33.6,
